Source: patent US8778929B2, “Substituted heteroaryl inhibitors of B-RAF” (Boehringer Ingelheim International GmbH, priority 2008, dated 2014)

biological target: B-Raf (V600E)-kinase (Homo sapiens, UniProt P15056, V600E); assay: Kinase test B-Raf (V600E); assay type: biochemical; settings: compound concentration 2 μM; 100% = no inhibition, 0% = total inhibition; read-out: % CTL (residual activity of the enzyme relative to DMSO control)
Method: In a dilution series 10 μL of test substance solution are placed in a multiwell plate. The dilution series is selected so that generally a range of concentrations of 2 μM to 0.119 nM or 0.017 nM is covered. If necessary the initial concentration of 2 μM is changed to 50 μM, 10 μM or 0.4 μM or 0.2857 μM and further dilution is carried out accordingly. The final concentration of DMSO is 5%. 10 μL of the B-Raf (V600E)-kinase solution are pipetted in (containing 0.5 ng B-Raf (V600E)-kinase in 20 mM Tris-HCl pH 7.5, 0.1 mM EDTA, 0.1 mM EGTA, 0.286 mM sodium orthovanadate, 10% glycerol, 1 mg/mL bovine serum albumin, 1 mM dithiothreitol) and the mixture is incubated for 1 h at RT under with shaking The kinase reaction is started by the addition of 20 μL ATP solution [final concentration: 250 μM ATP, 30 mM Tris-HCl pH 7.5, 0.02% Brij, 0.2 mM sodium orthovanadate, 10 mM magnesium acetate, 0.1 mM EGTA, phosphatase cocktail (Sigma, # P2850, dilution recommended by the manufacturer), 0.1 mM EGTA] and 10 μL MEK1 solution [containing 50 ng biotinylated MEK1 (prepared from purified MEK1 according to standard procedure, e.g. with EZ-Link Sulpho-NHS-LC-Biotin reagent, Pierce, # 21335) and carried out for 60 min at RT with constant shaking. The reaction is stopped by the addition of 12 μL of a 100 mM EDTA solution and incubation is continued for a further 5 min. 55 μL of the reaction solution are transferred into a streptavidin-coated plate (e.g. Streptawell HighBond, Roche, #11989685001) and shaken gently for 1 h at RT, in order to bind biotinylated MEK1 to the plate. After elimination of the liquid the plate is washed five times with 200 μL of 1×PBS and 100 μL solution of primary antibody plus europium-labelled secondary antibody [Anti Phospho-MEK (Ser217/221), Cell Signaling, # 9121 and Eu-N1 labeled goat-anti-rabbit antibody, Perkin Elmer, #AD0105], the primary antibody is diluted 1:2000 and the secondary antibody is diluted to 0.4-0.5 μg/mL in Delfia Assay Buffer (Perkin Elmer, #1244-111). After 1 h shaking at RT the solution is poured away and washed five times with 200 μL Delfia Wash Buffer (Perkin Elmer, #4010-0010/#1244-114). After the addition of 200 μL Enhancement Solution (Perkin Elmer, #4001-0010/#1244-105) the mixture is shaken for 10 min at RT and then measured in a Wallac Victor using the program “Delfia Time Resolved Fluorescence (Europium)”. IC50 values are obtained from these dosage-activity curves using a software program (GraphPadPrizm).
A value of 100% indicates no inhibition while a value of 0% indicates total inhibition. The % CTL values denote the residual activity of the enzyme after the addition of the inhibitory compound in the solvent DMSO in relation to the enzyme activity in the solvent DMSO without the addition of a compound (control). The values were determined using the B-Raf(V600E)-kinase test described above.

B-Raf (V600E)-kinase, sequence (P15056 whole entry V600E): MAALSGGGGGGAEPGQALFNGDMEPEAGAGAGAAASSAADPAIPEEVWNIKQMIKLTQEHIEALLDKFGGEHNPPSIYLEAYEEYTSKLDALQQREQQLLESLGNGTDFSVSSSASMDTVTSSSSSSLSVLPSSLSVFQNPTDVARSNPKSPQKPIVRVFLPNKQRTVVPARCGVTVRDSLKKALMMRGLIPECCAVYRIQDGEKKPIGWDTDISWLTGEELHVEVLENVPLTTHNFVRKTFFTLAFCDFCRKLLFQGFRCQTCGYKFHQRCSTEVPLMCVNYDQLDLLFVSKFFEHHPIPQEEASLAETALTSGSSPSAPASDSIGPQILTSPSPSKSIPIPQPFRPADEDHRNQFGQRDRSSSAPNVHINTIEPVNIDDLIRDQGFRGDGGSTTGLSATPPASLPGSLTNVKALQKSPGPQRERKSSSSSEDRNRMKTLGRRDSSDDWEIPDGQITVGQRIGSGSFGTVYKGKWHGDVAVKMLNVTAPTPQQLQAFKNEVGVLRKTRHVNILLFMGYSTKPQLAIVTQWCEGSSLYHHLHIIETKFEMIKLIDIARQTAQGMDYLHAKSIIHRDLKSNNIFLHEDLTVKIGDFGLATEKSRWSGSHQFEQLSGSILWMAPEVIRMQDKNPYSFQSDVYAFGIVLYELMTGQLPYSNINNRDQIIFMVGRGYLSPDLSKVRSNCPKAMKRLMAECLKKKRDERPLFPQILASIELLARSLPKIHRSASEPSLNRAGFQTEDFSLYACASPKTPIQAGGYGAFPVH

SMILES | remaining activity at 2 µM [%]
Cc1ncc(C(=O)Nc2cc(C(F)(F)F)ccn2)cc1-n1cc(-c2cncs2)nn1 [Example I-81] | 1.2
Cc1ncc(C(=O)Nc2cc(C(C)(C)C)on2)cc1-n1cc(-c2cncs2)nn1 [Example I-82] | 1.6
Cc1ncc(C(=O)Nc2cc(C(C)(C)C)n[nH]2)cc1-n1cc(-c2cncs2)nn1 [Example I-83] | 1.1
COc1cncc(-c2cn(-c3cc(C(=O)Nc4cc(C(C)(C)C)n[nH]4)cnc3C)nn2)c1 [Example I-84] | 2.4
COc1cncc(-c2cn(-c3cc(C(=O)Nc4cc(OC(F)(F)F)cc(N5CCN(C)CC5)c4)cnc3C)nn2)c1 [Example I-85] | 1.1
Cc1ncc(C(=O)Nc2cc(C3CCN(C)CC3)cc(C(F)(F)F)c2)cc1-n1cc(-c2cnn(C)c2C)nn1 [Example I-86] | 1.4
Cc1ncc(C(=O)Nc2cc(C3=CCN(C)CC3)cc(C(F)(F)F)c2)cc1-n1cc(-c2cnn(C)c2C)nn1 [Example I-87] | 1.7
Cc1ncc(C(=O)Nc2cc(C3=CCNCC3)cc(C(F)(F)F)c2)cc1-n1cc(-c2cnn(C)c2C)nn1 [Example I-88] | 1.3
COc1ccc(NC(=O)c2cnc(C)c(-n3cc(-c4cncs4)nn3)c2)cc1C(F)(F)F [Example I-89] | 1.5
COc1cncc(-c2cn(-c3cc(C(=O)Nc4cc(CN5CCCC5)c(Cl)c(C(F)(F)F)c4)cnc3C)nn2)c1 [Example I-90] | 2.1
COc1cncc(-c2cn(-c3cc(C(=O)Nc4cc(CN5CCCC5)cc(C(F)(F)F)c4)cnc3C)nn2)c1 [Example I-91] | 2.5
COc1cncc(-c2cn(-c3cc(C(=O)Nc4ccc(OC)c(C(F)(F)F)c4)cnc3C)nn2)c1 [Example I-92] | 2.5
CCN1CC=C(c2cc(NC(=O)c3cnc(C)c(-n4cc(-c5cnn(C)c5C)nn4)c3)cc(C(F)(F)F)c2C)CC1 [Example I-97] | 3.3
Cc1ncc(C(=O)Nc2cc(C3=CCN(CC4CC4)CC3)c(C)c(C(F)(F)F)c2)cc1-n1cc(-c2cnn(C)c2C)nn1 [Example I-98] | 3
CCC(C)N1CC=C(c2cc(NC(=O)c3cnc(C)c(-n4cc(-c5cnn(C)c5C)nn4)c3)cc(C(F)(F)F)c2C)CC1 (centres unmarked) [Example I-99] | 1.9

Second part, the molecule after the results:

remaining activity at 2 µM [%] | SMILES
3.5 | Cc1ncc(C(=O)Nc2cc(CN(C)C)c(C)c(C(F)(F)F)c2)cc1-n1cc(-c2cnn(C)c2C)nn1 [Example I-93]
3.5 | COCCN(C)Cc1cc(NC(=O)c2cnc(C)c(-n3cc(-c4cnn(C)c4C)nn3)c2)cc(C(F)(F)F)c1C [Example I-94]
3.1 | COc1c(CNCC(C)C)cc(NC(=O)c2cnc(C)c(-n3cc(-c4cnn(C)c4C)nn3)c2)cc1C(F)(F)F [Example I-95]
3.4 | COCCN(C)Cc1cc(NC(=O)c2cnc(C)c(-n3cc(-c4cnn(C)c4C)nn3)c2)cc(C(F)(F)F)c1OC [Example I-96]
3 | Cc1ncc(C(=O)Nc2cc(C(F)(F)F)cc(Br)c2C)cc1-n1cc(-c2cnn(C)c2C)nn1 [Example I-100]
4.6 | COc1c(CN(C)C)cc(C(F)(F)F)cc1NC(=O)c1cnc(C)c(-n2cc(-c3cnn(C)c3C)nn2)c1 [Example I-102]
3.8 | COc1c(CNC(C)C)cc(NC(=O)c2cnc(C)c(-n3cc(-c4cnn(C)c4C)nn3)c2)cc1C(F)(F)F [Example I-103]
2.1 | COc1c(CN2CCCC2)cc(C(F)(F)F)cc1NC(=O)c1cnc(C)c(-n2cc(-c3cnn(C)c3C)nn2)c1 [Example I-104]
1.3 | Cc1ncc(C(=O)Nc2cc(CN(C)C)cc(C(F)(F)F)c2)cc1-n1cc(-c2cnn(C)c2C)nn1 [Example I-106]

same assay, conditions: measurement at 1.43 μM (***); 100% = no inhibition, 0% = total inhibition; read-out: % CTL (residual activity of the enzyme relative to DMSO control)

remaining activity at 1.43 µM [%] | SMILES
1.3 | Cc1ncc(C(=O)Nc2cc(C(F)(F)F)cc(N3CCN(C)CC3)c2C)cc1-n1cc(-c2cnn(C)c2C)nn1 [Example I-101]
2 | COc1c(CNCC(C)C)cc(C(F)(F)F)cc1NC(=O)c1cnc(C)c(-n2cc(-c3cnn(C)c3C)nn2)c1 [Example I-105]
